Data reported in ChEMBL document CHEMBL1128848, “The asymmetric synthesis of both enantiomers of eliprodil” (1995).

Test system: Rattus norvegicus
Test: Neuroprotective activity (1 mg/kg) administered intravenously was evaluated in rat model of focal cerebral ischemia induced by permanent occlusion of the middle cerebral artery(MCA)
Type: functional

SMILES	Infarct volume [mm³]
O[C@H](CN1CCC(Cc2ccc(F)cc2)CC1)c1ccc(Cl)cc1	58.9
O[C@@H](CN1CCC(Cc2ccc(F)cc2)CC1)c1ccc(Cl)cc1	37.7
OC(CN1CCC(Cc2ccc(F)cc2)CC1)c1ccc(Cl)cc1 (racemic) [ELIPRODIL]	33.3
